B1: 2 kb: FLAG-tagged N-terminal deletion mutant hHEG1 (771-1481) (protein)
chain: MSALLILALVGAAVADYKDDDDKLAAANSSIDLSSGPPLPLPSVSQSHHLFSSILPSTRASVHLLKSTSDASTPWSSSPSPLPVSLTTSTSAPLSVSQTTLPQSSSTPVLPRARETPVTSFQTSTMTSFMTMLHSSQTADLKSQSTPHQEKVITESKSPSLVSLPTESTKAVTTNSPLPPSLTESSTEQTLPATSTNLAQMSPTFTTTILKTSQPLMTTPGTLSSTASLVTGPIAVQTTAGKQLSLTHPEILVPQISTEGGISTERNRVIVDATSGLIPLTSVPTSAKEMTTKLGVTAEYSPASRSLGTSPSPQTTVVSTAEDLAPKSATFAVQSSTQSPTTLSSSASVNSCAVNPCLHNGECVADNTSRGYHCRCPPSWQGDDCSVDVNECLSNPCPSTAMCNNTQGSFICKCPVGYQLEKGICNLVRTFVTEFKLKRTFLNTTVEKHSDLQEVENEITKTLNMCFSALPSYIRSTVHASRESNAVVISLQTTFSLASN
B2: 3 kb: FLAG-tagged N-terminal deletion mutant hHEG1 (285-1481) (protein)
chain: MSALLILALVGAAVADYKDDDDKLAAANSSIDLSWLHFYRTAASSPLLDLSSSSESTEKLNNSTGLQSSSVSQTKTMHVATVFTDGGPRTLRSLTVSLGPVSKTEGFPKDSRIATTSSSVLLSPSAVESRRNSRVTGNPGDEEFIEPSTENEFGLTSLRWQNDSPTFGEHQLASSSEVQNGSPMSQTETVSRSVAPMRGGEITAHWLLTNSTTSADVTGSSASYPEGVNASVLTQFSDSTVQSGGSHTALGDRSYSESSSTSSSESLNSSAPRGERSIAGISYGQVRGTAIEQRTSSDHTDHTYLSSTFTKGERALLSITDNSSSSDIVESSTSYIKISNSSHSEYSSFFHAQTERSNISSYDGEYAQPSTESPVLHTSNLPSYTPTINMPNTSVVLDTDAEFVSDSSSSSSSSSSSSSSSSSSSSGPPLPLPSVSQSHHLFSSILPSTRASVHLLKSTSDASTPWSSSPSPLPVSLTTSTSAPLSVSQTTLPQSSSTPV
B3: 2.2 kb: FLAG-tagged N-terminal deletion mutant hHEG1 (712-1481) (protein)
chain: MSALLILALVGAAVADYKDDDDKLAAANSSIDLSSYDGEYAQPSTESPVLHTSNLPSYTPTINMPNTSVVLDTDAEFVSDSSSSSSSSSSSSSSSSSSSSGPPLPLPSVSQSHHLFSSILPSTRASVHLLKSTSDASTPWSSSPSPLPVSLTTSTSAPLSVSQTTLPQSSSTPVLPRARETPVTSFQTSTMTSFMTMLHSSQTADLKSQSTPHQEKVITESKSPSLVSLPTESTKAVTTNSPLPPSLTESSTEQTLPATSTNLAQMSPTFTTTILKTSQPLMTTPGTLSSTASLVTGPIAVQTTAGKQLSLTHPEILVPQISTEGGISTERNRVIVDATSGLIPLTSVPTSAKEMTTKLGVTAEYSPASRSLGTSPSPQTTVVSTAEDLAPKSATFAVQSSTQSPTTLSSSASVNSCAVNPCLHNGECVADNTSRGYHCRCPPSWQGDDCSVDVNECLSNPCPSTAMCNNTQGSFICKCPVGYQLEKGICNLVRTFVTEF

How the values were obtained:
SKM9-2 [1] = assay: SPR analysis of binding between SKM9-2 and soluble His-tagged minimum epitope peptides (SKMepmin); settings: for Kd: His-tagged SKMepmin secreted from transfected HEK293T immobilized on Ni2+-binding sensor chip NTA, analyte 5 µg/mL SKM9-2, running buffer 10 mM HEPES pH 8.1, 150 mM NaCl, 0.005% Tween-20, 50 µM EDTA, read-out: KD (M), dissociation constant; for affinity of SKM9-2 in contrast to SKMepmin3 (in words): analyte 5 µg/mL SKM9-2, ligand on sensor chip NTA; for association rate between SKM9-2 and epitope peptide (in words) / dissociation rate between SKM9-2 and epitope peptide (in words): analyte 5 µg/mL SKM9-2, change caused by the substitution
Procedure: Figure 5 SPR analysis of the binding kinetics between SKM9-2 and mutants of minimum epitope. A soluble His-tagged mutant of minimum epitope (SKMepmin) was secreted from transfected HEK293T and immobilized as a ligand on the Ni^2+-binding sensor chip NTA. The upper sensorgrams show the binding kinetics of analyte (5 µg/mL of SKM9-2) to SKMepmins. The control without any peptide is shown as “No peptide” and the negative control peptide cycle is shown as “Control peptide”. The glycan-digested SKMepmin3 that was treated with Neuraminidase A and O-Glycosidase was used as the negative control peptide. The dissociation constant in the lower bar graph was calculated using the manufacturer’s instructions. RU, response units; Signal sequence, the artificial signal sequence (MAPLLLLLLPLLLLPPAAP).
Figure 7 SPR analysis of bindings of lectin and SKM9-2 to glycosidase-treated SKMepmin3. Purified SKMepmin3 was incubated with α2-3 Neuraminidase S, Neuraminidase A, or Neuraminidase A + O-Glycosidase; and then was immobilized as a ligand on Ni^2+-binding sensor chip NTA. The analytes were used at a concentration of 5 µg/mL. (a) ABA, (b) Jacalin, (c) rACG, (d) SKM9-2. Glycosidase-digested sample was not tested in the experiment with rACG.
Cell lysate or SKMepmin3 was treated with α2-3 Neuraminidase S, α2-3, 6, 8, 9 Neuraminidase A, and O-Glycosidase (New England Biolabs Japan, Tokyo, Japan) in 50 mM sodium phosphate (pH 7.5) containing 1% Nonidet P-40, according to the manufacturer’s instructions. The cell lysate sample was resolved by 4–15% or 6% SDS-PAGE under reducing conditions and detected by western blotting using SKM9-2. The analysis of the SKMepmin3 sample was performed by SPR.
The binding of SKM9-2 or lectin to SKMepmin was measured by SPR analysis. SKMepmin was diluted with a running buffer (10 mM HEPES buffer (pH 8.1) containing 150 mM NaCl and 0.005% Tween-20), flowed on Ni^2+-binding sensor chip NTA (GE Healthcare), and affinity-bound through His-tag as a ligand on the sensor chip. Binding analysis of SKM9-2 was performed in a running buffer containing 50 µM EDTA. A non-treated flow cell was used as a reference cell. SKM9-2, anti-sialyl Lewis^X (CSLEX1, Becton, Dickinson and Company Japan, Tokyo, Japan), rACG (Wako Pure Chemical Industries), biotinylated ABA (J-Oil Mills, Inc., Tokyo, Japan), or biotinylated Jacalin (Vector Laboratories, Inc., Burlingame, CA, USA) (each 5 µg/mL) was injected as an analyte with the running buffer. As a regeneration buffer, 350 mM EDTA was used. The dissociation constant was calculated using the manufacturer’s instructions.

SKM9-2 [2] = assay: Western blotting using SKM9-2 of HEG1 truncated mutants and epitope-fused GPI-anchor proteins; format: binding; settings: cell lysates of transfected HEK293T, SDS-PAGE under reducing conditions, 1 µg/mL SKM9-2
Description: Figure 1 SKM9-2 binding to truncated mutants of HEG1. Schematics of full-length HEG1 (Full) and the truncated mutants are indicated on the left side and the results of western blotting using SKM9-2 are shown on the right side. Truncated amino acid position, which is based on a full-length variant of HEG1 containing exon 6, is shown as a number in the schematic of domain structure. The region of the SKM9-2 epitope is shown as a red square. […] SLURP GPI-anchor protein[18] was used as a fused GPI-anchor protein (violet square). The terminal sequences of the HEG1 peptide are shown in the western blot lane. The samples were resolved by 6% SDS-PAGE (a and b) or 4–15% SDS-PAGE (c) under reducing conditions and were detected by western blotting using SKM9-2. Cyt, cytoplasmic domain; EGFs, EGF related domains; Ser/Thr, serine/threonine rich region; SLURP, secreted lymphocyte antigen-6/urokinase-type plasminogen activator receptor-related peptide; SP, signal peptide; TM, transmembrane domain. Full-length blots are presented in Supplementary Fig. S7.
Figure 2 Epitope mapping of SKM9-2. Schematic of epitope peptides (left side) and western blots resolved by 4–15% SDS-PAGE (right side) are shown. The HEG1 peptide sequences are indicated in the western blot lane. Each epitope peptide was fused with a signal peptide (dashed line square) and a SLURP GPI-anchor protein (violet square). Full-length blots are presented in Supplementary Fig. S8.
Figure 3 Alanine scanning of SKM9-2 epitope. […] Cell lysates of transfected HEK293T (upper panel) or transfected ACC-MESO1 (lower panel) were resolved by 4–15% SDS-PAGE and analyzed by western blotting using SKM9-2. (b) S897A mutant of FLAG-tagged HEG1 in HEK293T was resolved by 4–15% SDS-PAGE and analyzed by western blotting using SKM9-2 (upper panel) or anti-FLAG mAb (lower panel). Native HEG1 in ACC-MESO4 and FLAG-tagged HEG1 without mutation in HEK293T were used as controls. Full-length blots are presented in Supplementary Fig. S9.
Sequences of tested HEG1 are shown in Supplementary Dataset. Full-length HEG1 cDNA was synthesized from total RNA purified with TRIzol reagent (Thermo Fisher Scientific) from ACC-MESO-4, using an oligo dT primer and SuperScript II RNase H reverse transcriptase (Thermo Fisher Scientific). cDNA encoding the HEG1 open reading frame was amplified by PCR using PrimeSTAR HS DNA Polymerase (Takara Bio Inc., Shiga, Japan). The HEG1 cDNA was cloned and inserted into the pcDNA3.1(−) mammalian expression vector (Thermo Fisher Scientific). For analyses of N-terminal truncation, we inserted mutants into pFLAG-CMV1 (Sigma-Aldrich Japan K.K., Tokyo, Japan). For analyses of C-terminal deletion lacking the transmembrane domain, we used mutants that were fused with a GPI-anchor protein, SLURP1-gpi[18], in pcDNA3.1(+) (Thermo Fisher Scientific) (Supplementary Dataset). Alanine substituted mutants were prepared using site directed mutagenesis. To produce a soluble epitope peptide, a modified HEG1 signal peptide and a C-terminal tag containing the FLAG tag plus a polyhistidine sequence were used in the mammalian expression vector pEF-BOS[39] (Supplementary Dataset). The plasmid constructs were transfected with Lipofectamine 3000 (Thermo Fisher Scientific). The HEG1 peptide-expressing 293 H clone was obtained by selection with geneticin (Thermo Fisher Scientific).
Monolayer cells were solubilized with 20 mM Tris buffer (pH 8.0) containing 1% SDS, 1 mM phenylmethylsulfonyl fluoride, 125 mU/mL Benzonase Nuclease (Merck Millipore Co., Tokyo, Japan) (25 µL/cm^2 culture surface area). The lysate (10 µL/lane) was resolved by SDS-PAGE under reducing conditions using 6% polyacrylamide gels or 4–15% precast gels (Bio-Rad Laboratories Inc., Hercules, CA, USA). […]

Molecule	Kd (SKM9-2 [1])	affinity of SKM9-2 in contrast to SKMepmin3 (in words) (SKM9-2 [1])	association rate between SKM9-2 and epitope peptide (in words) (SKM9-2 [1])	dissociation rate between SKM9-2 and epitope peptide (in words) (SKM9-2 [1])	recognition by SKM9-2 upon western blot analysis (SKM9-2 [2])
MAPLLLLLLPLLLLPPAAPGGSKAPTLVSLPAGGDYKDDDDKHHHHHHHH [SKMepmin7]	6.17e-08 M	further reduced			
MAPLLLLLLPLLLLPPAAPGGTKAPSLVSLPAGGDYKDDDDKHHHHHHHH [SKMepmin5]	2.9e-09 M	restored	hardly influenced	hardly influenced	
MAPLLLLLLPLLLLPPAAPGGSKSPSLVSLPTGGDYKDDDDKHHHHHHHH [SKMepmin1]	8.75e-09 M				
MAPLLLLLLPLLLLPPAAPGGSKAPSLVSLPTGGDYKDDDDKHHHHHHHH [SKMepmin2]	6.22e-09 M		increased		
MAPLLLLLLPLLLLPPAAPGGSKAPSLVTLPAGGDYKDDDDKHHHHHHHH [SKMepmin9]	6.38e-09 M	restored		increased	
MAPLLLLLLPLLLLPPAAPGGSKAPSLVALPAGGDYKDDDDKHHHHHHHH [SKMepmin8]	3.25e-08 M	decreased		increased	
7.626: 887-EKVITESKSPSLVSLP-902 -SLURP GPI					weakly recognized
MAPLLLLLLPLLLLPPAAPGGSKAPALVSLPAGGDYKDDDDKHHHHHHHH [SKMepmin6]	4.2e-08 M	decreased		increased	
7.627: 887-EKVITESKSPSLVS-900 -SLURP GPI					not bound
7.62: 887-EKVITESKSPSLVSLPTEST-906 -SLURP GPI					clearly detected
MAPLLLLLLPLLLLPPAAPGGAKAPSLVSLPAGGDYKDDDDKHHHHHHHH [SKMepmin4]	1.15e-08 M	decreased	decreased		
B1					recognized
B2					recognized
B3					recognized

— PMC6155162, “Identification of mesothelioma-specific sialylated epitope recognized with monoclonal antibody SKM9-2 in a mucin-like membrane protein HEG1” (Scientific Reports, 2018)
